The source of these data is US12358885B2, “Substituted n-propylamine fused heterocyclic mescaline derivatives” (Enveric Biosciences Canada Inc., priority 2022, dated 2025).

In assay [1] the target is T1, 5-HT1A receptor (Homo sapiens, UniProt P08908).
T1 construct: purchased Perkin Elmer 6110501400UA
T1 sequence (P08908 1-422): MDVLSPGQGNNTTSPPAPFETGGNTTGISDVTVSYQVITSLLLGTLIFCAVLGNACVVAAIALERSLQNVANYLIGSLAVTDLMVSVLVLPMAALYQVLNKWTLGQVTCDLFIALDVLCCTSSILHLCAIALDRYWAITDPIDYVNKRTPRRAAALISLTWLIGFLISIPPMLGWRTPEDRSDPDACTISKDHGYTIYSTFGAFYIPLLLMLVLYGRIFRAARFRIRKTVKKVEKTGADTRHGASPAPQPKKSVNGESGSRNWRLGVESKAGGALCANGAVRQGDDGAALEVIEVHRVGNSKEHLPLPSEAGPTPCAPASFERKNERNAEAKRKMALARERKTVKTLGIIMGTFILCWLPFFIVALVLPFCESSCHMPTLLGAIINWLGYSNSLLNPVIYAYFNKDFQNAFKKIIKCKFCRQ
In words: Eurofins Cerep competition binding assay at 5-HT1A receptor. The following applies: 10 μM test ligand, [3H]8-OH-DPAT, recombinant receptor in HEK-293 cells; for inhibition at 10 µM: read-out: HT1A, percent of control-specific binding.

The target of assay [2] is T1, 5-HT1A receptor. In words: Functional 5-HT1A receptor cAMP assay in CHO-K1/5-HT1A/Gα15 cells. In kind it is cell-based. (Changes in cAMP serve as a functional read-out for many G protein-coupled receptors.)
Another assay deals with T2, 5-HT2B receptor (Homo sapiens, UniProt P41595).
T2 construct: host or cells: CHO cells (membrane preparation)
In words: Eurofins Cerep competition binding assay at 5-HT2B receptor. The conditions noted are these: 10 μM test ligand, [3H]mesulergine, recombinant receptor in CHO cells; for inhibition at 10 µM: read-out: HT2B, percent of control-specific binding.

In assay [3] the target is T3, norepinephrine transporter (NET) (Homo sapiens, UniProt P23975).
T3 construct: host or cells: CHO cells (membrane preparation)
Briefly: Eurofins Cerep competition binding assay at norepinephrine transporter. The following applies: for NET, percent of control-specific binding: 10 μM test ligand, [3H]nisoxetine, recombinant transporter in CHO cells; for inhibition at 10 µM: read-out: NET, percent of control-specific binding.

The target in assay [4] is T4, 5-HT2A receptor (Homo sapiens, UniProt P28223).
T4 construct: host or cells: HEK-293 cells (membrane preparation)
In words: biochemical. In kind it is binding.

Assay [5] has as its target T5, dopamine transporter (DAT) (Homo sapiens, UniProt Q01959).
T5 construct: host or cells: CHO cells (membrane preparation)
In words: Eurofins Cerep competition binding assay at dopamine transporter. The conditions noted are these: for DAT, percent of control-specific binding: 10 μM test ligand, [3H]BTCP, recombinant transporter in CHO cells; for inhibition at 10 µM: read-out: DAT, percent of control-specific binding.

The target of another assay is T6, D3 receptor (Homo sapiens, UniProt P35462).
T6 construct: host or cells: CHO cells (membrane preparation)
Briefly: Eurofins Cerep competition binding assay at D3 receptor. The conditions noted are these: 10 μM test ligand, [3H]methylspiperone, recombinant receptor in CHO cells; for inhibition at 10 µM: read-out: D3, percent of control-specific binding.

The target in assay [6] is T1, 5-HT1A receptor. In words: 5-HT1A receptor radioligand competition assay (SPA, 8-hydroxy-DPAT [3H]). In kind it is binding. The following applies: 0.5 nM hot 8-hydroxy-DPAT, membranes containing 5-HT1A. (Loss of bound radioactivity is the signal in a displacement assay; it reports binding, not function.)
A further assay concerns the target T7, alpha2A receptor (Homo sapiens, UniProt P08913).
T7 construct: host or cells: CHO cells (membrane preparation)
T7 sequence (P08913 1-465): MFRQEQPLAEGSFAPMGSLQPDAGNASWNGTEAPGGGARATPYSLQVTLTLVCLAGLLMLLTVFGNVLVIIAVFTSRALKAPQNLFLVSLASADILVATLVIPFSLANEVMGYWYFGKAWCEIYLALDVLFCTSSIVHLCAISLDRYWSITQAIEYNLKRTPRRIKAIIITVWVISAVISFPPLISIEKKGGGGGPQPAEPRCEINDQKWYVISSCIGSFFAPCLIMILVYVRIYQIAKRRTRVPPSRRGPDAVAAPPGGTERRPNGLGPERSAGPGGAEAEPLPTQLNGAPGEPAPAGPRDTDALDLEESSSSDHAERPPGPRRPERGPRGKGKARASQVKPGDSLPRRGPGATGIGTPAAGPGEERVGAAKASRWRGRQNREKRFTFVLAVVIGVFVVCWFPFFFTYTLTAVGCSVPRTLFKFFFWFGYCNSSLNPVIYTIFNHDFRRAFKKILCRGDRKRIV
Briefly: Eurofins Cerep competition binding assay at alpha2A receptor. The conditions noted are these: 10 μM test ligand; [3H]RX 821002; recombinant receptor in CHO cells.

Assay [7] has as its target T8, serotonin transporter (SERT) (Homo sapiens, UniProt P31645).
T8 construct: host or cells: CHO cells (membrane preparation)
In words: biochemical. In kind it is binding. The following applies: for SERT, percent of control-specific binding: 10 µM; for inhibition at 10 µM: read-out: SERT, percent of control-specific binding.

In a further assay the target is T9, MT1 receptor (Homo sapiens, UniProt P48039).
T9 construct: host or cells: CHO cells (membrane preparation)
In words: Eurofins Cerep competition binding assay at MT1 receptor. The following applies: for MT1, percent of control-specific binding: 10 μM test ligand, [125I]2-iodomelatonin, recombinant receptor in CHO cells; for inhibition at 10 µM: read-out: MT1, percent of control-specific binding.

For a further assay, the target named is T10, 5-HT7 receptor (Homo sapiens, UniProt P34969).
T10 construct: host or cells: HEK-293 cells (membrane preparation)
Briefly: Eurofins Cerep competition binding assay at 5-HT7 receptor. The conditions noted are these: 10 μM test ligand, [3H]LSD, recombinant receptor in HEK-293 cells; for inhibition at 10 µM: read-out: HT7, percent of control-specific binding.

In assay [8] the target is T4, 5-HT2A receptor. In words: biochemical. In kind it is binding. The following applies: for inhibition at 10 µM: read-out: HT2A, percent of control-specific binding.
For another assay, the target named is T11, 5-HT2C receptor (Homo sapiens, UniProt P28335).
T11 construct: host or cells: HEK-293 cells (membrane preparation)
T11 sequence (P28335 33-458): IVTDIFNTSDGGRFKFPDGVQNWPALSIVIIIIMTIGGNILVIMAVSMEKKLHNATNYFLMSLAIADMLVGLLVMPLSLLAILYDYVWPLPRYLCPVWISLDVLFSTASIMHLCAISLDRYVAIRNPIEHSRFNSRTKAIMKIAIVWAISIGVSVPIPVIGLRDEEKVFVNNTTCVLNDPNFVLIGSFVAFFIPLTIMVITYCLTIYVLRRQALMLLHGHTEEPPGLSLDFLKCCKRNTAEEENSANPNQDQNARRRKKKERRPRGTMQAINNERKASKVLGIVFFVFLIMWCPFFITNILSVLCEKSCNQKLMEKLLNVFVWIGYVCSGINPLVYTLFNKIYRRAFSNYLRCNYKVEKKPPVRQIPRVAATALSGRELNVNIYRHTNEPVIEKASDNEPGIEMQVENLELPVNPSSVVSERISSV
In words: Eurofins Cerep competition binding assay at 5-HT2C receptor. The following applies: 10 μM test ligand, [125I](±)DOI, recombinant receptor in HEK-293 cells; for inhibition at 10 µM: read-out: HT2C, percent of control-specific binding.

The mark [9] stands for this setting: reduction of cAMP in cells stimulated with 4 μM forskolin, CHO-K1/5-HT1A/Gα15, read-out: 5-HT1A, EC50.
Where [10] appears, read: 1 nM [3H]ketanserin, membranes containing 5-HT2A, SPA.
Where [11] appears, read: 10 μM test molecule, [125I](±)DOI, recombinant receptor in HEK-293 cells.

Like-named read-outs stand apart in the source and are kept apart here.

T2 sequence (P41595 whole entry): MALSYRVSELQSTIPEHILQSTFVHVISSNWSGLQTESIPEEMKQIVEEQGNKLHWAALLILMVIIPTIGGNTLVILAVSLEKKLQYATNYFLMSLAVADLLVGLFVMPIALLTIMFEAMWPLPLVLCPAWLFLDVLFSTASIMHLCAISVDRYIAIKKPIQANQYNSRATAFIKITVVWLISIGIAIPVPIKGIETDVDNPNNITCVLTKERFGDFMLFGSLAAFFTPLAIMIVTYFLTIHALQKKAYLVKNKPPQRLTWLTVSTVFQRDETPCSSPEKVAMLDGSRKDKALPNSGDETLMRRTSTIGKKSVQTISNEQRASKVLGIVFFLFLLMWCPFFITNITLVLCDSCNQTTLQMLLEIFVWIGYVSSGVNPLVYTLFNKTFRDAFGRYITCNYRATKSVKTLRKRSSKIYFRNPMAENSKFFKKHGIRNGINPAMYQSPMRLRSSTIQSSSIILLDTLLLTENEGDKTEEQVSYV
T8 sequence (P31645 whole entry): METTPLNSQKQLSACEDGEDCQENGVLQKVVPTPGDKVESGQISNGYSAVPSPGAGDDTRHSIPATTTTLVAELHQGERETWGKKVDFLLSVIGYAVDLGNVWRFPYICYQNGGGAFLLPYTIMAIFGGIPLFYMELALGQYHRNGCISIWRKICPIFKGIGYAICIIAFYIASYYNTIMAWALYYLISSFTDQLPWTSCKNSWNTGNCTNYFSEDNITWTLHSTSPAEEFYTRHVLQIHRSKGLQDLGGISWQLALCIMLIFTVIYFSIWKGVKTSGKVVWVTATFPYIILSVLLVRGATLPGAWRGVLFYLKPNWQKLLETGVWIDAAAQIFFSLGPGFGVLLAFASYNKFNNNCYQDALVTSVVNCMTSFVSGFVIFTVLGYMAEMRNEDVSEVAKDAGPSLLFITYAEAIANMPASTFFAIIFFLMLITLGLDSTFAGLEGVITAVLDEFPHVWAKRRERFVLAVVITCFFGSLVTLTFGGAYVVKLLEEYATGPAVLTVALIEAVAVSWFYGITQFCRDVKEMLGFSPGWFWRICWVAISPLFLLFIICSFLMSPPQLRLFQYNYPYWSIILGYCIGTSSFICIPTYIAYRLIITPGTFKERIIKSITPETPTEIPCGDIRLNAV
T10 sequence (P34969 whole entry): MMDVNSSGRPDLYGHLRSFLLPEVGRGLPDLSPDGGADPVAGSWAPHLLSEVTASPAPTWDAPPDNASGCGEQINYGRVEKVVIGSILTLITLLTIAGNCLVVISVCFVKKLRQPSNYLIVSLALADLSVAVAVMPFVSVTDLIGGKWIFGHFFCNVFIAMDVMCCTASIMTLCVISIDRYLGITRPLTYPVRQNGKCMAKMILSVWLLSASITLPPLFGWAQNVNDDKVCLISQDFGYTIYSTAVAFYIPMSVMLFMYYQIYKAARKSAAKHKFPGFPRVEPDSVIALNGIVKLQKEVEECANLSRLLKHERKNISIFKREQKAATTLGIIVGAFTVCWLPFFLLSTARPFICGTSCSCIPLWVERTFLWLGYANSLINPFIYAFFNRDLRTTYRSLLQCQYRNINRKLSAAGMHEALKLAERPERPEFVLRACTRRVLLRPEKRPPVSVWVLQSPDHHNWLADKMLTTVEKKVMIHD
T3 sequence (P23975 whole entry): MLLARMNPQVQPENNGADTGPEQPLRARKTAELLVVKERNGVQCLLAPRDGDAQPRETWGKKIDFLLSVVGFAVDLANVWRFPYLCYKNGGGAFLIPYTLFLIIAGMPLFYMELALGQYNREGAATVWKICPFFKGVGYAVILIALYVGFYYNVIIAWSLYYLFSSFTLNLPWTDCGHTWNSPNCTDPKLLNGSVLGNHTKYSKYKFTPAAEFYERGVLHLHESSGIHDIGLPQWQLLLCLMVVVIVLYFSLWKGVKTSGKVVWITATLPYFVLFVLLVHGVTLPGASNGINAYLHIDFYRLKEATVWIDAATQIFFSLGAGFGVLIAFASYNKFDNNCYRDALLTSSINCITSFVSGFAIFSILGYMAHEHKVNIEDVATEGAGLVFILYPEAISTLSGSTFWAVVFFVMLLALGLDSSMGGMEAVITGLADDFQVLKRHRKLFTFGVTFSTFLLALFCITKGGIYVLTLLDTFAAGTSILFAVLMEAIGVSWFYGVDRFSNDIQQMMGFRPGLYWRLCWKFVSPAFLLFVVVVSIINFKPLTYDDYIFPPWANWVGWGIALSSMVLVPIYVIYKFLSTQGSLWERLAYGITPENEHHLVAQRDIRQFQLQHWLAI
T5 sequence (Q01959 whole entry): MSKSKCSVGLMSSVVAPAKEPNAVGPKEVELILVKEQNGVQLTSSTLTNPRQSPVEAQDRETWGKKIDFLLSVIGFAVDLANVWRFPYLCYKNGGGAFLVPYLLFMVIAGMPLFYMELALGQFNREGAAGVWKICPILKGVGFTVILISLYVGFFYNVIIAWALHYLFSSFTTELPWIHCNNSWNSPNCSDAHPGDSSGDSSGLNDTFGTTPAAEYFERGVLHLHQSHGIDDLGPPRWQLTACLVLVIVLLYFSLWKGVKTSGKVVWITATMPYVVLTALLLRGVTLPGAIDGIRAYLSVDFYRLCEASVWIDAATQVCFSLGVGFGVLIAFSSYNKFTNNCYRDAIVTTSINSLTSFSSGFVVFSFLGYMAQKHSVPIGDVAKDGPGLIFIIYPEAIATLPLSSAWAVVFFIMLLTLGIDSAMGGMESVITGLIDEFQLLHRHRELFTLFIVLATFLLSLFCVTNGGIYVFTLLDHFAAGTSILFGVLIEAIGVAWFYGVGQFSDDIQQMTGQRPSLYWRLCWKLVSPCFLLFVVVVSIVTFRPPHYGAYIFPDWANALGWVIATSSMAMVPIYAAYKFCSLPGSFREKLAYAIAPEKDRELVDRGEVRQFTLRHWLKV
T4 sequence (P28223 whole entry): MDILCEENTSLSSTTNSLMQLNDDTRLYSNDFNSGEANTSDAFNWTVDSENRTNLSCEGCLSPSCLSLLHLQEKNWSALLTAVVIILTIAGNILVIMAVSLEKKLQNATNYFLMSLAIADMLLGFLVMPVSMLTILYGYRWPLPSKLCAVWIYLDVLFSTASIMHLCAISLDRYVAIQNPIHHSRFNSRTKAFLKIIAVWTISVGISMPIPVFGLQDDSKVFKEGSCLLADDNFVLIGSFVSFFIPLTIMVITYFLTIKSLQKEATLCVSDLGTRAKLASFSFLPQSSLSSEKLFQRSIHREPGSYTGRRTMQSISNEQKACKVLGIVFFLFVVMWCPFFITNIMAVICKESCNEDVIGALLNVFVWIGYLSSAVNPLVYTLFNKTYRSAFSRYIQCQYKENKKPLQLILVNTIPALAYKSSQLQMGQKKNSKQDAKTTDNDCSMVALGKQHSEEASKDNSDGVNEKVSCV
T6 sequence (P35462 whole entry): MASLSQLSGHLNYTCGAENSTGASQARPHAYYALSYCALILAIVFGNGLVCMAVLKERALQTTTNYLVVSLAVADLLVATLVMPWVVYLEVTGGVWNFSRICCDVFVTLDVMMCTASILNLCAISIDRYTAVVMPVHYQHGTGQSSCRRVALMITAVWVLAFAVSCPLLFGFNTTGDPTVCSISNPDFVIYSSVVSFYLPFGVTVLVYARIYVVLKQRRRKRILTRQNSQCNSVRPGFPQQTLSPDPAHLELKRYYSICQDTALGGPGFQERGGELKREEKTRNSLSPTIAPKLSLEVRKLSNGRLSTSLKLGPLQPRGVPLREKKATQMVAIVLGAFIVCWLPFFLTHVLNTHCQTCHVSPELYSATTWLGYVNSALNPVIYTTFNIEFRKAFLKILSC
T9 sequence (P48039 whole entry): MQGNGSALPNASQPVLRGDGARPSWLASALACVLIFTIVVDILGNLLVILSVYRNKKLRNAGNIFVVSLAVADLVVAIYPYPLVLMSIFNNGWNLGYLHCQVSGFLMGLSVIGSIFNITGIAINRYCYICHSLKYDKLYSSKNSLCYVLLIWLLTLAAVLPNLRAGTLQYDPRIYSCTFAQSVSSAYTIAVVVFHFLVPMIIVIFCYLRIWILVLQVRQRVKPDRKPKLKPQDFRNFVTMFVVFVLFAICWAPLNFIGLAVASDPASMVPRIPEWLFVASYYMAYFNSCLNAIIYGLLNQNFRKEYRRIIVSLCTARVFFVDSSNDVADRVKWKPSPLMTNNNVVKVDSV

Broadly, the EC50 is the concentration at which the effect is half-maximal. The term Ki denotes the equilibrium dissociation constant of an inhibitor or competing ligand from its target. In the case of `COc1cc(CCN)c(OC)cc1Br` [2C-B, reference compound], the “HT1A, percent of control-specific binding” value (“HT1A, percent” below) on 5-HT1A receptor [1] was determined as 96%. In addition, the EC50 at 5-HT1A receptor [2] (setting [9]) is 5.95 µM. Also, the “HT2B, percent of control-specific binding” value (“HT2B, percent” for short) on 5-HT2B receptor was found to be 99%. In addition, the “NET, percent of control-specific binding” value in [3] turned out to be 13%. Besides, the Ki on 5-HT2A receptor [4] (setting [10]) was 0.414 µM; at 5-HT1A receptor [6] it was 0.2 µM. Also, in assay [5], the “DAT, percent of control-specific binding” value was determined as 5%. The “D3, percent of control-specific binding” value on D3 receptor is given as 43%. For the same compound, the “α-2A, percent of control-specific binding” value (from here on “α-2A, percent”) on alpha2A receptor turned out to be 88%. For the same compound, the “SERT, percent of control-specific binding” value (shortened to “SERT, percent”) in assay [7] stood at 42%. The “MT1, percent of control-specific binding” value at MT1 receptor is 86%. Also, on 5-HT7 receptor, the “HT7, percent of control-specific binding” value stood at 88%. In addition, the “HT2A, percent of control-specific binding” value (shortened to “HT2A, percent”) at 5-HT2A receptor [8] (setting [11]) stood at 98%.

For `C/C(=C\c1ccc2c(c1)OCO2)CN1CCCC1` [B(II)], the inhibition at 10 µM came to 79% on 5-HT1A receptor [1]; 87% at 5-HT2B receptor; 43% in assay [3]; 69% in assay [5]; 45% at 5-HT2C receptor; 55% on D3 receptor. The inhibition at 10 µM in assay [7] was found to be 95%; at MT1 receptor, 20%; at 5-HT7 receptor, 68%; on 5-HT2A receptor [8] (setting [11]), 53%. Moreover, the EC50 on 5-HT1A receptor [2] is 40.1 µM. Moreover, the Ki on 5-HT2A receptor [4] (setting [10]) was 7 µM; on 5-HT1A receptor [6], 824 µM. For the same compound, the “α-2A, percent” value on alpha2A receptor came out at 75%.

Turning to `CCN(CC)C/C=C/c1ccc2c(c1)OCO2` [D(I)], the inhibition at 10 µM on 5-HT1A receptor [1] turned out to be 49%; on 5-HT2B receptor, 58%; in assay [3], 17%; in assay [5], 39%; at 5-HT2C receptor, 33%; on D3 receptor it was 21%. For the same compound, the inhibition at 10 µM is 70% in [7], 10% at MT1 receptor, 18% on 5-HT7 receptor and 32% on 5-HT2A receptor [8] (setting [11]). The compound also returned an EC50 on 5-HT1A receptor [2] above 1000 µM. The same compound yielded a Ki on 5-HT2A receptor [4] (setting [10]) of 21 µM. Moreover, on alpha2A receptor, the “α-2A, percent” value is listed as 34%.

`O=C(CCc1ccc2c(c1)OCO2)N1CCCC1` [F(III)]: the inhibition at 10 µM on 5-HT1A receptor [1] is 0%; at 5-HT2B receptor it was 13%; in assay [3] it was 0%; in assay [5], 0%; on 5-HT2C receptor it was 5%; on D3 receptor it was 0%. Besides, the inhibition at 10 µM is 0% in [7], 12% on MT1 receptor, 2% on 5-HT7 receptor and 0% on 5-HT2A receptor [8] (setting [11]). Besides, the Ki is 152 µM on 5-HT2A receptor [4] (setting [10]) and above 1000 µM on 5-HT1A receptor [6]. The “α-2A, percent” value on alpha2A receptor amounted to 5%.

As to `CNC(C)Cc1ccc2c(c1)OCO2` (centres unmarked) [MDMA, reference compound], at 5-HT1A receptor [1], the “HT1A, percent” value is listed as 68%. Further, the EC50 on 5-HT1A receptor [2] (setting [9]) was above 1000 µM. The “HT2B, percent” value at 5-HT2B receptor stood at 85%. Moreover, in [3], the “NET, percent of control-specific binding” value is listed as 3%. Moreover, the Ki on 5-HT2A receptor [4] came to 39.9 µM; on 5-HT1A receptor [6] it was 11 µM. For the same compound, the “DAT, percent of control-specific binding” value in assay [5] is 28%. The “HT2C, percent of control-specific binding” value at 5-HT2C receptor is recorded as 96%. The “D3, percent of control-specific binding” value on D3 receptor is listed as 18%. In addition, the “α-2A, percent” value at alpha2A receptor was determined as 27%. Besides, the “SERT, percent” value in assay [7] is 46%. Also, the “MT1, percent of control-specific binding” value at MT1 receptor was 1%. At 5-HT7 receptor, the “HT7, percent of control-specific binding” value is recorded as 58%. Besides, the “HT2A, percent” value at 5-HT2A receptor [8] (10 µM) came out at 74%.

As to `CCOc1c(OC)cc(CCN)cc1OC` [escaline], at 5-HT1A receptor [1], the “HT1A, percent” value is recorded as 44%. Further, at 5-HT2B receptor, the “HT2B, percent” value is listed as 81%. For the same compound, in [3], the “NET, percent of control-specific binding” value worked out at 6%. Also, the Ki on 5-HT2A receptor [4] (setting [10]) was 61 µM; at 5-HT1A receptor [6], 12.4 µM. For the same compound, the “DAT, percent of control-specific binding” value in assay [5] was determined as 0%. Moreover, at 5-HT2C receptor, the “HT2C, percent of control-specific binding” value is 95%. In addition, the “D3, percent of control-specific binding” value on D3 receptor is 0%. The “α-2A, percent” value at alpha2A receptor is 45%. In addition, in assay [7], the “SERT, percent” value was 0%. The “MT1, percent of control-specific binding” value at MT1 receptor is reported as 0%. Besides, on 5-HT7 receptor, the “HT7, percent of control-specific binding” value was found to be 16%. At 5-HT2A receptor [8] (setting [11]), the “HT2A, percent” value was determined as 84%.
